The values below come from PubChem BioAssay (NCI).

In this assay the test system is MDA-MB-468 breast. Nature of the assay: growth of human tumour cells (NCI), 48 h.

Where “and” joins values, the source holds several entries; their conditions need not be identical. Identical values can stand only once.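 A five-concentration, 48-hour dose response in 96-well plates underlies each endpoint, interpolated linearly between surrounding concentrations. Abbreviation: GI50, concentration required for 50% inhibition of growth. Definition used: TGI = concentration required for complete inhibition of growth.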 Bounds are passed on as bounds.

Turning to `COc1cc(-c2cc(C(=O)N3CCN(C(=O)c4ccccc4NCc4ccco4)CC3)nc3cc(-c4ccccc4)nn23)cc(OC)c1OC`, the GI50 is 2320 nM and the TGI was determined as 7200 nM.

With `N#C/C(=C\c1c(-c2ccccc2)[nH]c2ccccc12)C(=O)c1ccc(Cl)cc1`, the GI50 was 527 nM and the TGI amounted to 6290 nM.

On to `Cn1cc(-c2ccc(=O)n(Cc3cccc(-c4ncc(OCCN5CCOCC5)cn4)c3)n2)cn1`, for which the GI50 is 14400 nM and the TGI stood at 86800 nM.

Take `O=C(Nc1ccncc1)C(=O)c1cn(S(=O)(=O)c2ccc(Br)cc2)c2ccccc12`: the GI50 was 608 nM and the TGI is 7840 nM.

Turning to `COc1ccc([C@H]2C(=O)N(c3cc(OC)c(OC)c(OC)c3)[C@@H]2c2ccc(OC)c(O)c2)cc1`, the GI50 was 23 nM and the TGI came to 62.8 nM.

Take `O=C1/C(=C\c2ccc(Cl)cc2)CN(C(=S)Nc2ccccc2)C/C1=C\c1ccc(Cl)cc1`: the GI50 is 457 nM and the TGI was determined as 1660 nM.

For `COc1cc2c(cc1OC)C(=O)C(Br)CC2` (stereo not given), the GI50 was 1280 nM and the TGI amounted to 3570 nM.

For the molecule `O=C1[C@H]2Cc3c([nH]c4ccccc34)[C@@H](c3ccc(Br)cc3)N2C(=O)CN1C1CCN(Cc2ccccc2)CC1`, the GI50 was 1140 nM and the TGI came to 4850 nM.

Turning to `COc1cc2cc(Oc3ccc(NC(=O)Nc4cccc(C(F)(F)F)c4)cc3)c(C)nc2cc1OCCN1CCCCC1`, the GI50 was 1590 nM and the TGI stood at 3210 nM.

For `CCOC(=O)c1cnc(SCc2ccc(Cl)c(Cl)c2)nc1N1CC1`, the GI50 was 2400 nM and the TGI came to 6140 nM.

Consider `COc1cc(CCc2cc(NC(=O)c3ccc(N4C[C@@H](C)N[C@@H](C)C4)cc3)n[nH]2)cc(OC)c1`, for which the GI50 is > 10000 nM and 8100 nM; the TGI is > 10000 nM and 20800 nM.

`COc1cc2cc(Oc3ccc(NC(=O)Nc4ccc(F)c(C(F)(F)F)c4)cc3)c(C)nc2cc1OCCN1CCCCC1`: the GI50 is 1470 nM and the TGI is 2920 nM.

In the case of `CCC1(OC(=O)CN2CCN(CCO)CC2)C(=O)OCc2c1cc1n(c2=O)Cc2cc3ccccc3nc2-1` (stereo not given), the GI50 was 149 nM and the TGI was determined as 449 nM.

`C[C@H]1[C@H](OC(=O)CCC(=O)O)O[C@@H]2O[C@]3(C)CC[C@H]4[C@H](C)CC[C@@H]1[C@@]24OO3`: the GI50 is 2860 nM and the TGI amounted to 24700 nM.

In the case of `O/N=C1\CCc2cc(-c3nc(C4CCNCC4)[nH]c3-c3ccncc3)ccc21`, the GI50 is more than 25000 nM and the TGI was more than 25000 nM.

Turning to `COc1ccc(-c2cc(-c3ccc(Nc4nc(Nc5ccc(Cl)cc5)nc(Nc5ccc(Cl)cc5)n4)cc3)nc(N)c2C#N)cc1`, the GI50 is 369 nM and the TGI worked out at 1960 nM.

Regarding `CS(=O)(=O)c1nccc(-c2c(-c3ccc(F)c(OCCc4ccc(F)cc4)c3)nc3sccn23)n1`, the GI50 is 1810 nM and the TGI amounted to 3530 nM.

For `COc1ccc(/C(=C/c2cc(OC)c(OC)c(OC)c2)[N+](=O)[O-])cc1`, the GI50 was 2010 nM and the TGI is 4780 nM.

Turning to `OB([O][Hg][c]1ccccc1)[O][Hg][c]1ccccc1`, the GI50 was 88.5 nM and the TGI came to 303 nM.

Consider `Cc1cc2c(C)c3cc(C)c(N)cc3nc2cc1N`, for which the GI50 was 399 nM and the TGI was determined as 2370 nM.

Turning to `COc1ccc(/C=C2\CN(C(=O)CCN3CCC(=NO)CC3)C/C(=C\c3ccc(OC)cc3)C2=O)cc1`, the GI50 is 2010 nM and the TGI was found to be 4580 nM.

Consider `CCCCCCCCCCCCc1ccc(C(=O)/C=C/C(=O)O)cc1`, for which the GI50 was 1660 nM and the TGI was 3350 nM.

`CCCCCCCCCCCCCCCCCCNC(=O)[C@H]1CSC(c2ccc(OC)c(F)c2)N1` (stereo not given in full): the GI50 is 18600 nM and the TGI is more than 50900 nM.

On to `COc1ccccc1C(=O)/C=C/c1cc2cccc(OC)c2[nH]c1=O`, for which the GI50 was 104 nM and the TGI worked out at 2010 nM.

As to `Nc1cccc2c1C(=O)N(C1CCC(=O)NC1=O)C2=O` (stereo not given), the GI50 was more than 100000 nM and the TGI was more than 100000 nM.

As for `COc1ccc(N(C)c2nc(C)nc3ccccc23)cc1`, the GI50 is less than 10 nM and the TGI is less than 10 nM.

`O=[N+]([O-])c1ccc(N/N=C\c2cc(Cl)ccc2O)nc1`: the GI50 is 2510 nM and the TGI was 7250 nM.

Regarding `Cc1ccc(S(=O)(=O)NC(CCC(=O)Nc2ccc(Cl)cc2)C(=O)Nc2ccc(Cl)cc2)cc1` (stereo not given), the GI50 was 1290 nM and the TGI came to 6530 nM.

As for `COC(=O)[C@]12CC[C@@H](C)[C@H](C)[C@@H]1C1=CC[C@@H]3[C@@]4(C)CC(=O)[C@H](O)[C@@]5(C)COC(=C45)C[C@@]3(C)[C@]1(C)CC2`, the GI50 is 14900 nM and the TGI was found to be 30500 nM.

With `C1CCC([PH+](C2CCCCC2)C2CCCCC2[PH+](C2CCCCC2)C2CCCCC2)CC1.[Au].[CH-]1CCCCC1C1CCCC[N-]1` (stereo not given), the GI50 is 154 nM and the TGI turned out to be 641 nM.

On to `CC1(C)N=C(N)N=C(N)N1c1cccc(/C=C/C=C/c2cccc([N+](=O)[O-])c2)c1`, for which the GI50 is 346 nM and the TGI stood at 12000 nM.

Molecule `O=C(Nc1n[nH]c2nc(-c3ccco3)c(Br)cc12)C1CC1` yielded a TGI of more than 25000 nM.

As for `O=C1c2cc3c(cc2-c2c1c1cc(Cl)c(Cl)cc1c(=O)n2CCCn1ccnc1)OCO3`, the GI50 was less than 10 nM and the TGI was 45.8 nM.

Consider `Cc1cc(NC(=O)C2c3ccccc3C(=O)N(CC(C)C)C2c2cccs2)no1` (stereo not given), for which the GI50 is 43800 nM and the TGI is more than 100000 nM.

As for `O=C1C=C[C@]2(C[C@@H](c3cccc(C(F)(F)F)c3)O[C@@H](c3cccc(C(F)(F)F)c3)O2)O1`, the GI50 is 1670 nM and the TGI was found to be 3590 nM.

For `COc1cccc(NC(=O)c2sc3nc4c(cc3c2N)CCCC4)c1`, the GI50 is 239 nM and the TGI was found to be 874 nM.

In the case of `C[C@@H](c1ccc2nccn2c1)n1nnc2ncc(-c3cnn(C)c3)nc21`, the GI50 was 38600 nM and the TGI was more than 100000 nM.

Regarding `COc1cc[nH]c1/C=C1\C(=O)Nc2ccc(F)c(C#C[C@@H](O)[C@@H](N)[C@@H](C)O)c21`, the GI50 was 476 nM and the TGI worked out at 1180 nM.
